Source: patent US10588929B1, “Method of synthesizing watermelon seed particles” (KING SAUD UNIVERSITY, priority 2019, dated 2020)

Experiments:
Assay in all cases: Zone of inhibition, diffusion agar technique
Format in all cases: cell-based
Settings in all cases: beyond well diameter of 6 mm, 100 μg of nanoparticles
[1] = system: Escherichia coli (RCMB 010054)
Protocol: (§1) Watermelon seed nanoparticles synthesized according to Example 1 were tested for antimicrobial activity against gram negative bacteria, gram positive bacteria, and fungi. Zone of inhibition studies were performed, the results of which are summarized in Table 2 (displaying mean zone of inhibition in mm ± standard deviation beyond well diameter of 6 mm). Testing used the diffusion agar technique with 6.0 mm well diameter and administration of 100 μg of the watermelon seed nanoparticles.

[2] = system: Bacillus subtilis (RCMB 010068)
Protocol: as §1

[3] = system: Streptococcus pneumoniae (RCMB 010011)
Protocol: as §1

[4] = system: Aspergillus fumigatus (RCMB 02567)
Protocol: as §1

## Gentamicin
[1]
  mean zone of inhibition: 20.3 ± 0.58 mm

## CC1(C)S[C@@H]2[C@H](NC(=O)[C@H](N)c3ccccc3)C(=O)N2[C@H]1C(=O)O [Ampicillin]
[2]
  mean zone of inhibition: 31.3 ± 1.5 mm
[3]
  mean zone of inhibition: 21.0 ± 1.0 mm

## C[C@@H]1[C@H](O)[C@@H](C)/C=C/C=C/C=C/C=C/C=C/C=C/C=C/[C@H](O[C@@H]2O[C@H](C)[C@@H](O)[C@H](N)[C@@H]2O)C[C@@H]2O[C@](O)(C[C@@H](O)C[C@@H](O)[C@H](O)CC[C@@H](O)C[C@@H](O)CC(=O)O[C@H]1C)C[C@H](O)[C@H]2C(=O)O [Amphotericin B]
[4]
  mean zone of inhibition: 21.7 ± 1.5 mm
